{"source": "paper PMC6721824", "about": "“IGFs Potentiate TAC3-induced SLα Expression via Upregulation of TACR3 Expression in Grass Carp Pituitary Cells” (Cells, 2019)", "key": {"grass carp TACR3 [1]": {"biological_target": "T1, grass carp TACR3 (Ctenopharyngodon idella, UniProt A0A075BDW2)", "T1 sequence (A0A075BDW2 1-395)": "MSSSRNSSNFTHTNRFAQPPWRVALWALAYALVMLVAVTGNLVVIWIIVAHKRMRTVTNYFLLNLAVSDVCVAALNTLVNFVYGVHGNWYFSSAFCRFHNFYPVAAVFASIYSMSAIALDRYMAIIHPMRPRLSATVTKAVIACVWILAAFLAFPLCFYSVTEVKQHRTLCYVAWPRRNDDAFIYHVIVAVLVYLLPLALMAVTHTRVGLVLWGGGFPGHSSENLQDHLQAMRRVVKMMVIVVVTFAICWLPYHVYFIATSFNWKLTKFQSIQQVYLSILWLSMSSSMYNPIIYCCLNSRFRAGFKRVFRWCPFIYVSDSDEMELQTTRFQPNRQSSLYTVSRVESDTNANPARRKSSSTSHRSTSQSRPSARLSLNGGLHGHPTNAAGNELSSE", "assay": "CRE-Luc luciferase reporter (cAMP pathway) in HEK-293 cells with stable expression of grass carp TACR3", "type": "cell-based, grass carp (Ctenopharyngodon idellus)", "conditions": "SEM", "quoted_text": "To clarify the ligand selectivity and signal transduction pathways of TACR3, functional expression of grass carp TACR3 was performed in HEK-293 cells with co-transfection of luciferase-expressing reporters targeting different signaling pathways provided by the Clontech Cell Signaling Profiling Kit (Clontech, Mountain View, CA, USA), including cAMP response element (CRE)-Luc (for cAMP pathway), activator protein-1 (AP1)-Luc (for PKC pathway), nuclear factor of activated T-cells (NFAT)-Luc (for Ca^2+/calcineurin pathway), and serum responsive element (SRE)-Luc (for MAPK pathway) [29]. […]\nFor the calcium bioluminescence signals and raw data obtained from luciferase reporter assays, the luminescence signals or luciferase activity was expressed as “relative luminescence unit (RLU)” registered by the fluorescence plate reader. For individual samples of the luciferase reporter assay, the firefly luciferase activity detected was routinely normalized against Renilla Luciferase activity expressed in the same well and expressed as the luciferase activity ration (as “Luc Ratio”). […] The six replicates presented (expressed as Mean ± SEM) were pooled results from two individual experiments prior to statistical analysis; all data were tested for normality of distribution using the Shapiro–Wilk normality test. […]"}, "grass carp TACR3 [2]": {"biological_target": "T1, grass carp TACR3", "assay": "Fluorescence-based receptor binding assay, displacement of FAM-NKBa tracer", "set-up": "species or system grass carp (Ctenopharyngodon idellus)", "conditions": "HEK-293 cells with stable expression of grass carp TACR3, 30 min pretreatment with competitor (0.1–1000 nM), then FAM-NKBa (10 nM) 30 min, 37 °C, fluorescence 490/520 nm; read-out: IC50 for displacing FAM-NKBa binding"}, "[3]": {"system": "SLα mRNA expression in grass carp pituitary cells", "assay": "SLα mRNA expression (qPCR) in grass carp pituitary cells", "type": "cell-based, grass carp (Ctenopharyngodon idellus)", "conditions": "senktide 1 µM, IGF-I/-II 100 nM (Figure 4E)", "protocol": "Grass carp pituitary cells prepared by the trypsin/DNase digestion method were seeded in 24-well plates at ~2.5 × 10^6 cells/mL/well. On the following day, drug treatment was initiated by replacing the old medium with a testing medium with the appropriate levels of test substances, and the cells were then allowed to incubate at 28 °C for the duration as indicated. After drug treatment, total RNA was extracted from individual wells and reversely transcribed as above. The RT samples obtained were subjected to qPCR using a LightCycler SYBR Green I Kit (Roche, Stockholm, Sweden) with the primers mentioned above. In these studies, serial dilutions of plasmid DNA containing the ORF of SLα (GeneBank no.: EF372074) and TACR3 (GenBank no: JQ254913) cDNA were used as the standards for data calibration. Parallel real-time PCR measurement of β-actin was also conducted in individual experiments to serve as the internal control.\nFor real-time PCR of SLα and TACR3 mRNA measurement, standard curves with a dynamic range of ≥10^5 and correlation coefficient of ≥0.95 were used for data calibration with the RotorGene-Q software 1.7 (Qiagen) under unsupervised mode. SLα and TACR3 mRNA data were normalized with the β-actin transcript level and then were transformed as a percentage of the mean value in the control group without drug treatment (as “%Ctrl”). For the calcium bioluminescence signals and raw data obtained from luciferase reporter assays, the luminescence signals or luciferase activity was expressed as “relative luminescence unit (RLU)” registered by the fluorescence plate reader. For individual samples of the luciferase reporter assay, the firefly luciferase activity detected was routinely normalized against Renilla Luciferase activity expressed in the same well and expressed as the luciferase activity ration (as “Luc Ratio”). For receptor binding assay, specific binding of FAM-NKBa was measured in terms of “Arbitrary Fluorescence Unit (AFU)”. The six replicates presented (expressed as Mean ± SEM) were pooled results from two individual experiments prior to statistical analysis; all data were tested for normality of distribution using the Shapiro–Wilk normality test. Then, one-way ANOVA and two-way ANOVA were used to test the significant difference according to different experiment groups. The differences between groups were considered as significant at P < 0.05 (“*”) or highly significant at P < 0.01 (“**”)."}, "Akt": {"system": "Akt", "assay": "Western blot for signaling kinases: Akt phosphorylation", "type": "cell-based, grass carp (Ctenopharyngodon idellus)", "conditions": "grass carp pituitary cells, senktide (1 µM) + IGF-I (50 nM), 15 min", "protocol": "(§1) The pituitary cells derived from twenty grass carp pituitaries were seeded in 24-well culture plates at a density of 2.5 × 10^6 cells/mL/well and incubated with drug treatment for the duration as indicated in the individual experiments. […] After drug treatment, the culture medium from individual wells was removed and the remaining cells were rinsed with PBS and lysed in RIPA buffer (50 mM Tris^·HCl, 150 mM NaCl, 1 mM EDTA, 1% NP-40, and 0.25% Na deoxycholate), containing a final concentration of 1×protease/phosphatase inhibitor cocktail (Roche). The cell lysate was cleared by high-speed centrifugation at 4 °C, the clear supernatant was resolved in 10% gel by SDS-PAGE, and Western blotting was conducted according to the procedures as previously described. The antibodies that can be detected, the phosphorylated and total ERK1/2 (1:5,000), MEK1/2 (1:1,000), p38 MAPK (1:1,000), and Akt (1:1,000), were used at the dilutions recommended by the manufactures. […] Chemiluminescence signals for target immune-reactivity were detected using SuperSignal West Pico (PIERCE, Rockford, IL, USA) as the substrate and quantified using the IC440 CF Digital Science Image Station (Eastman Kodak, Rochester, NY, USA). […]"}, "p38MAPK": {"system": "p38MAPK", "assay": "Western blot for signaling kinases: p38MAPK phosphorylation", "type": "cell-based, grass carp (Ctenopharyngodon idellus)", "conditions": "grass carp pituitary cells, senktide (1 µM) + IGF-I (50 nM), 15 min", "protocol": "as §1"}, "MEK1/2": {"system": "MEK1/2", "assay": "Western blot for signaling kinases: MEK1/2 phosphorylation", "type": "cell-based, grass carp (Ctenopharyngodon idellus)", "conditions": "grass carp pituitary cells, senktide (1 µM) + IGF-I (50 nM), 15 min", "protocol": "as §1"}, "ERK1/2": {"system": "ERK1/2", "assay": "Western blot for signaling kinases: ERK1/2 phosphorylation", "type": "cell-based, grass carp (Ctenopharyngodon idellus)", "conditions": "grass carp pituitary cells, senktide (1 µM) + IGF-I (50 nM), 15 min", "protocol": "as §1"}}, "note": "Peptide text beside a SMILES is read from it.", "data": [{"molecule": "CSCC[C@H](NC(=O)[C@H](CC(C)C)NC(=O)CNC(=O)[C@H](Cc1ccccc1)N(C)C(=O)[C@H](Cc1ccccc1)NC(=O)[C@H](CC(=O)O)NC(=O)CCC(=O)O)C(N)=O", "note": "[senktide] (HELM PEPTIDE1{[O=C(O)CCC(=O)[*:2]].D.F.[meF].G.L.M.[am]}$$$$V2.0; N-terminus and C-terminus assumed)", "values": [{"measurement": "EC50", "setting": "grass carp TACR3 [1]", "value": "0.0213 ± 0.0032", "unit": "µM"}, {"measurement": "IC50", "setting": "grass carp TACR3 [2]", "value": "0.0712 ± 0.00923", "unit": "µM"}, {"measurement": "SLα mRNA expression on cotreatment of TACR3 agonist with IGF-I or IGF-II", "setting": "[3]", "value": "mimic the synergistic effects"}, {"measurement": "effect of cotreatment on IGF-I-induced protein phosphorylation of Akt", "setting": "Akt", "value": "noticeable potentiating effect"}, {"measurement": "effect of cotreatment on IGF-I-induced protein phosphorylation of p38MAPK", "setting": "p38MAPK", "value": "did not alter"}, {"measurement": "effect of cotreatment on IGF-I-induced protein phosphorylation of MEK1/2", "setting": "MEK1/2", "value": "did not alter"}, {"measurement": "effect of cotreatment on IGF-I-induced protein phosphorylation of ERK1/2", "setting": "ERK1/2", "value": "did not alter"}]}]}
